In patent publication US5214034A, “Catechol derivatives, and preventive and remedial preparations for regressive disorders in the central nervous system containing the same” (priority 1986, dated 1993):
Read-outs that look alike come from different tables or passages of the source.

Legend:
[1] = tested on: rats injected with kainic acid at basal forebrain; experiment: Promotion of recovery from retention deficits by repeated learning (passive avoidance); assay type: in vivo, rat (male Sprague-Dawley); parameters: key: latency in seconds to enter dark chamber, capped at 300 s; details: Table 9, i.p. 5 mg/kg before each trial
Experimental: (§1) Effects of the derivative on the behavioral parameters of rats injected with kainic acid at basal forebrain were characterized with regard to both prevention against deficits in retention of passive avoidance learning and promotion of recovery from damaged state by repeated learning.
(§2) Male Sprague-Dawley rats (9-10 weeks of age, 200-250 g of weight) were anesthetized with Nembutal (50 mg/kg, i.p.) and placed in a stereotaxic apparatus. Bilateral lesions of the ventral globus pallidus were made by direct stereotaxic application (0.7 mm posterior to bregma, 2.7 mm lateral to the midline, and 7.0 mm ventral to the brain surface) of 0.25 μg of kainic acid in 1 μl of PBS (pH 7.4) to prepare disordered models. Controls were sham-operated rats injected with PBS in place of kainic acid solution.
(§3) Passive avoidance procedures were performed by using a two chambered step-through passive avoidance apparatus with a guillotine door. A 3 mA scrambled shock was delivered to the dark floor grids for 3 seconds as a punishment. Habituation trial was conducted prior to the acquisition trial. Each rats were placed in the illuminated chamber and the guillotine door was raised after 10 seconds. As soon as the rats entered into the dark chamber, the door was lowered. The rats were removed after 10 seconds and returned to their home cages. […] The acquisition trial was performed similarly to the habituation trial. In the former case, a rat was placed in the illuminated room and the door was opened after 10 seconds. The door was shut immediately after the rat entered into the dark room, a scrambled foot shock was applied, and then the animal was removed. The latency to enter the dark chamber after opening the door was recorded for 300 seconds in the retention of passive avoidance. The latency exceeding 300 seconds was calculated as 300 seconds.
The promoting effects on the recovery by repeated training from the damaged state of retention were acessed by using 30 rats injected with kainic acid. Rats were subjected to the acquisition trial 10 days after the operation. The rats were equally divided into 3 groups after 24 hours and injected intrapenitroneally with 5 mg/kg of 4-n-propylcatechol and the derivative (A) (R=--CO--, R=H, R2 =n-propyl) respectively as a saline solution. The remaining 10 rats were intraperitoneally injected with saline alone. The first retention trial was carried out two days after the injection. Rats which entered into the dark chamber within 30 seconds were punished by the scrambled foot shock as a training. On the next day, all animals were administered again the same amount of test derivative or saline. These animals were subjected to the second retention trial two days after the second injection.
Retention trials, punishments and additional administrations were repeated as mentioned above four times in all.

[2] = tested on: rats injected with kainic acid at basal forebrain / sham-operated rats; experiment: Retention of passive avoidance learning: prevention of retention deficits; assay type: in vivo, rat (male Sprague-Dawley); details: Table 8, i.p. 5 mg/kg on days 1, 4, 7
Experimental: as §1, §2, §3
The preventive effects on deficits in retention were estimated by using 60 rats. Thirty rats were injected with kainic acid and other 30 rats were sham-operated with PBS.
Each groups of animals were equally divided into three groups which were received intraperitoneally 5 mg/kg of the derivative (A) (R=2H, R1 =H, R2 =n-propyl, that is, 4-n-propylcatechol), derivative A (R=--CO--, R1 =H, R2 =n-propyl) and saline respectively as a saline solution on one, four and seven days after the operation.
Table 8 illustrates the results obtained by conducting the acquisition trial 10 days after the operation and the retention test after 24 hours.

NGF = NGF production in the central nervous system of normal rats by intraperitoneal injection (NGF content of brain tissue, ELISA); assay type: in vivo, rat (Wistar male); details: Table 7, i.p., three times every other day
Experimental: The derivative (A), e.g. R=Two H, R1 =H and R2 =n-propyl (hereinafter referred to as 4-n-propylcatechol), was administered to normal rats by intraperitoneal injection, and the effect was examined.
4-n-Propylcatechol was administered by intraperitoneal injection 4 times every other day in a dosage of 5 mg/kg. The rats were killed two days after the final administration. The NGF content of each parts in brain was measured. The content was compared with those of control group which was administered saline alone.
A variety of the derivative was administered three times every other day. The content of NGF in the forebrain after 48 hours and 7 days from the final administration was measured and illustrated in Table 7.
Wistar male rats (9-10-week old, 200-250 g of weight) were intraperitoneally injected with the test derivative in a volume of 0.5 ml as a saline solution, emulsion or suspension. Dose and administration times were the same as above. The rats were killed by a hard spinal blow two days after the final administration. Each parts of brain were dissected and subjected to the following treatment under ice cooling.
Each parts of brain were weighed and homogenized for 30 strokes by a Dounce type homogenizer in a homogenization buffer (0.1 M Tris-HCl, containing 2% bovine serum albumin fraction V, 2% gelatin, 1.0 M NaCl, 0.02% NaN3, 2 mM EDTA and 2.6 kiu/ml of aprotinin, pH 7.6) at a concentration of 10% (W/V) (only septum 5% (W/V)). Each homogenate was centrifuged at 100,000 xg for 10 minutes, and 50 μl of supernatant was added with the same amount of a dilution buffer (0.1 M Tris-HCl containing 2% bovine serum albumin fraction V, 0.05% NaN3 and 20 mM CaCl2, pH 7.6). Determination was conducted in accordance with a method of S. Furukawa et al. by using a high sensitivity ELISA system on 8-NGF which was described in J. Neurochem., 40, 734-744 (1983). Lower limit of determination is 0.25 pg/ml. Data are indicated as a mean value ±SE on the NGF content of tissue (pg/mg wet tissue) of five rats.

Acute toxicity (LD50) = details: mouse, in vivo
Experimental: The catechol derivative having normal type saturated lower alkyl groups on the ring was administered by intravenous injection (i.v.), intraperitoneal injection (i.p.) or oral route (p.o.) to male ddy mice of 4-week old. The LD50 values (mg/kg) were measured by an ordinary method.

CCCc1ccc2oc(=O)oc2c1 [R = --CO--, R1 = H, R2 = n-Propyl]
Mean latency, 1st retention trial [1]: 46 ± 13 | Mean latency, 4th retention trial ([1]; **P < 0.01): 284 ± 15 | Mean latency, 2nd retention trial ([1]; *P < 0.05): 167 ± 31 | Mean latency, 3rd retention trial ([1]; *P < 0.05): 236 ± 28 | Animals with more than 150 sec of latency ([2]; rats operated with kainic acid): 4 in 10 animals | Mean latency ([2]; rats operated with kainic acid, *P < 0.01 vs control): 152 ± 29 s | Animals with more than 150 sec of latency ([2]; sham-operated rats): 10 in 10 animals | Mean latency ([2]; sham-operated rats): 291 ± 7 s | NGF content after 48 hr. (NGF; 48 hours after final administration): 1.66 ± 0.23 pg/mg wet tissue of frontal co | NGF content after 7 days (NGF; 7 days after final administration): 2.23 ± 0.39 pg/mg wet tissue of frontal co | LD50 (Acute toxicity (LD50); ip, intraperitoneal injection, read-out: LD50 i.p.): > 1000 mg/kg | LD50 (Acute toxicity (LD50); intravenous injection, read-out: LD50 i.v.): > 250 mg/kg | LD50 (Acute toxicity (LD50); oral route, read-out: LD50 p.o.): > 2500 mg/kg
